Counter-ions that a name gives are not always drawn.
Assays:
[1] = tested on: Caenorhabditis elegans N2; test: lowest effective concentration for larval growth inhibition (size below effect threshold); higher = less potent; settings: exposure time 48 h
How it was run: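 In 96-well plates, 50 C. elegans N2 L1 larvae per well were cultured at 20°C for 48 h in K-medium with killed bacteria and 1% DMSO, plus the chemical at 0.5, 1, 5, 10, 50, 100 or 200 µM. Size was measured as per-worm extinction on a Biosort and log-transformed into well means. Taking the first dose where the plate-adjusted mean size sits under 5.665 and stays there at higher doses gives the lowest effective concentration.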

[2] = tested on: Caenorhabditis elegans N2; test: mean nematode size ln(EXT) after 48 h, plate-adjusted (DMSO control set to 6) (ln(EXT), control-adjusted); higher = larger nematodes / less growth inhibition; settings: exposure time 48 h
How it was run: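 Chemical at 0.5–200 µM was tested on synchronised C. elegans N2 L1 larvae grown for 48 h at 20°C in K-medium with killed OP50 and 1% DMSO. Per-worm Biosort extinction, cleared of debris by a growth model, was natural-logged and averaged per well to give mean size. Plates were normalised by subtracting the vehicle control mean and adding 6.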

SMILES	lowest effective concentration [1]	mean nematode size ln(EXT) (ln) ([2]; 0.5 µM)	mean nematode size ln(EXT) (ln) ([2]; 1 µM)	mean nematode size ln(EXT) (ln) ([2]; 5 µM)	mean nematode size ln(EXT) (ln) ([2]; 10 µM)	mean nematode size ln(EXT) (ln) ([2]; 50 µM)	mean nematode size ln(EXT) (ln) ([2]; 100 µM)	mean nematode size ln(EXT) (ln) ([2]; 200 µM)
O=c1[nH]cnc2c1ncn2[C@H]1CC[C@@H](CO)O1 [Didanosine]	> 200 µM	5.88	5.86	5.85	5.84	5.89	5.96	5.76
C=C(C)C(N)=O [Methacrylamide]	> 200 µM	6.05	5.91	5.89	5.82	6.01	5.82	5.86
COP(N)(=O)SC (centres undefined) [Methamidophos]	> 200 µM	5.74	5.85	5.85	5.88	5.89	5.93	5.87
CCCC(=O)O [Butanoic acid]	> 200 µM	5.86	5.86	5.86	5.86	5.94	6	5.71
CN(C)C(=O)NC1(c2ccccc2)CCN(CC[C@@]2(c3ccc(F)c(F)c3)CN(C(=O)c3ccccc3)CCO2)CC1	> 200 µM	5.89	5.86	5.86	5.8	5.9	5.92	5.68
CC(C)c1cccc(C(C)C)c1NC(=O)NS(=O)(=O)c1cc(C(C)(C)O)co1	> 200 µM	5.93	5.86	5.97	5.91	6	5.8	5.79
O=S1(=O)CCCO1 [1,3-Propane sultone]	> 200 µM	5.83	5.87	5.85	5.78	5.84	5.91	5.76
COP(=O)(OC)O/C(C)=C/C(=O)N(C)C [Dicrotophos]	> 200 µM	6.11	6.42	6.04	6.07	6.05	6.05	5.85
c1ccc2c(c1)Nc1ccccc1S2 [Phenothiazine]	> 200 µM	6.07	6.03	5.92	5.8	5.55	5.59	5.99
COc1cc(OC)nc(Sc2cccc(Cl)c2C(=O)O)n1 [Pyrithiobac-sodium]	> 200 µM	5.98	6	6.11	6.18	6.06	6.1	5.69
Nc1nc(=S)c2[nH]cnc2[nH]1 [6-Thioguanine]	> 200 µM	5.81	5.79	5.86	5.8	5.78	5.86	5.72
Oc1ccccc1O [Catechol]	> 200 µM	5.94	5.82	5.86	5.84	5.9	5.95	5.72
CCC12COCN1COC2 [5-Ethyl-1-aza-3,7-dioxabicyclo[3.3.0]octane]	> 200 µM	5.73	6.05	6.06	5.92	5.96	5.94	5.78
CCCCCCCCCCCCCCCC [Hexadecane]	> 200 µM	5.93	5.9	5.89	5.89	5.86	5.83	5.72
OC(CCl)CCl [1,3-Dichloro-2-propanol]	> 200 µM	5.88	5.83	5.8	5.82	5.8	5.48	5.88
CC(C)CC(C)(O)C#CC(C)(O)CC(C)C (racemic)	> 200 µM	5.77	5.77	5.78	5.78	5.64	5.75	5.81
CSC(C)(C)/C=N/O [Aldicarb oxime]	> 200 µM	5.88	5.88	5.75	5.85	5.94	5.94	5.77
CCc1ccc(CCOc2ccc(CC3SC(=O)NC3=O)cc2)nc1 (centres undefined) [Pioglitazone HCl]	> 200 µM	5.98	5.94	5.95	5.96	5.91	5.87	5.76
CCCCCCCC(=O)O [Octanoic acid]	> 200 µM	6	5.81	5.92	5.8	5.89	5.84	5.78
CCCC(=O)OCCC(C)C [Isoamyl butyrate]	> 200 µM	5.92	5.91	5.91	6.05	5.81	5.9	6.13
CCCN(CCC)N=O [N-Nitrosodipropylamine]	> 200 µM	5.88	5.93	5.92	5.84	5.87	5.72	5.97
O=C(O)C(Cl)Cl [Dichloroacetic acid]	> 200 µM	5.56	5.97	6.02	5.89	5.98	5.92	5.7
CC(C)CCCCCCOC(=O)CCCCC(=O)OCCCCCCC(C)C [Diisononyl adipate]	> 200 µM	5.94	5.98	5.93	5.92	5.87	5.91	5.69
OC[C@H]1O[C@@](CO)(O[C@H]2O[C@H](CO)[C@@H](O)[C@H](O)[C@H]2O)[C@@H](O)[C@@H]1O [Sucrose]	> 200 µM	6.01	5.97	6.04	5.98	5.84	5.87	5.82
CNC(C)=O [N-Methylacetamide]	> 200 µM	6.09	6.1	6.07	6.02	6.03	6.07	5.84
CCCc1cc(=O)[nH]c(=S)[nH]1 [6-Propyl-2-thiouracil]	> 200 µM	5.8	5.84	5.82	5.91	5.8	5.88	5.74
C1N2CN3CN1CN(C2)C3 [Hexamethylenetetramine]	5 µM	5.69	5.77	5.6	5.54	5.51	5.41	5.6

SMILES	lowest effective concentration [1]	mean nematode size ln(EXT) (ln) ([2]; 0.5 µM)	mean nematode size ln(EXT) (ln) ([2]; 1 µM)	mean nematode size ln(EXT) (ln) ([2]; 5 µM)	mean nematode size ln(EXT) (ln) ([2]; 10 µM)	mean nematode size ln(EXT) (ln) ([2]; 50 µM)	mean nematode size ln(EXT) (ln) ([2]; 100 µM)	mean nematode size ln(EXT) (ln) ([2]; 200 µM)
O=C([O-])c1ccccc1.[Na+] [Sodium benzoate]	> 200 µM	5.83	5.83	5.95	5.83	5.86	5.76	5.68
CN(C)C(=S)[S-].CN(C)C(=S)[S-].[Zn+2] [Ziram]	> 200 µM	5.98	5.89	5.78	5.83	5.84	5.75	5.77
C[C@]12C=CC(=O)C=C1CC[C@H]1[C@@H]3C[C@@H](O)[C@](O)(C(=O)CO)[C@@]3(C)C[C@H](O)[C@@]12F [Triamcinolone]	> 200 µM	5.9	5.86	5.87	5.87	5.92	5.86	5.79
CC(C)=CCC/C(C)=C/C=O [3,7-Dimethyl-2,6-octadienal]	> 200 µM	5.72	5.74	5.77	5.84	5.78	5.88	5.73
CC[C@H]1OC(=O)[C@H](C)[C@@H](O[C@H]2C[C@@](C)(OC)[C@@H](O)[C@H](C)O2)[C@H](C)[C@@H](O[C@@H]2O[C@H](C)C[C@H](N(C)C)[C@H]2O)[C@](C)(O)C[C@@H](C)C(=O)[C@H](C)[C@@H](O)[C@]1(C)O [Erythromycin]	> 200 µM	5.95	5.89	5.94	5.9	5.86	5.92	5.84
Cc1cccc([N+](=O)[O-])c1 [3-Nitrotoluene]	> 200 µM	5.78	5.89	5.82	5.77	5.93	5.88	5.85
CC1=C(C(=O)Nc2ccccc2)SCCO1 [Carboxin]	> 200 µM	5.77	5.9	5.83	5.85	5.84	5.62	5.9
Clc1ccccc1Cl [1,2-Dichlorobenzene]	> 200 µM	5.95	5.9	5.9	6	6.02	6.04	5.68
COS(C)(=O)=O [Methyl methanesulfonate]	> 200 µM	5.92	5.9	5.9	5.87	5.81	5.52	5.89
OCC1CO1 (centres undefined) [Glycidol]	> 200 µM	5.87	5.79	5.81	5.79	5.78	5.49	5.83
COC(=O)CCCC(=O)OC [Dimethyl glutarate]	> 200 µM	5.91	5.94	5.9	6.02	6.01	6.04	5.78
CCCCN(CCCC)N=O [N-Nitrosodi-N-butylamine]	> 200 µM	6.12	6.07	5.93	5.97	5.99	6.08	5.95
CCOC(=O)CCC(=O)OCC [Butanedioic acid, diethyl ester]	> 200 µM	5.83	5.91	5.87	5.89	5.9	5.98	5.75
C1CC2OC2CC1C1CO1 (mixture of isomers) [Vinylcyclohexene dioxide, mixture of isomers]	> 200 µM	5.91	5.97	5.93	5.74	5.93	5.91	5.7
Cc1cc(C)c(O)c(C)c1 [2,4,6-Trimethylphenol]	> 200 µM	5.76	5.87	5.85	5.84	5.87	5.86	5.76
COC(=O)CSc1cc(/N=c2\sc(=O)n3n2CCCC3)c(F)cc1Cl [Fluthiacet-methyl]	> 200 µM	5.92	5.93	5.96	5.96	5.98	5.95	5.92
O=c1ccc2ccccc2o1 [Coumarin]	> 200 µM	5.93	5.92	5.85	5.93	5.94	5.95	5.8
Nc1cccc(N)c1 [1,3-Benzenediamine]	> 200 µM	5.8	5.84	5.87	5.89	5.87	6	5.78
CCCCN(CCCC)CCCC [Tributylamine]	> 200 µM	5.91	6	5.98	6.1	5.96	5.92	5.8
Cc1ccccc1N [2-Methylbenzenamine]	> 200 µM	5.79	5.87	5.76	5.89	5.91	5.73	5.89
CN1CSC(=S)N(C)C1 [Dazomet]	> 200 µM	5.73	5.62	5.46	5.71	5.78	5.55	5.83
CN1COCN(Cc2cnc(Cl)s2)/C1=N\[N+](=O)[O-] [Thiamethoxam]	> 200 µM	5.81	5.7	5.73	5.88	5.8	5.88	5.91
CC1(C)C(C=C(Cl)Cl)C1C(=O)OC(C#N)c1ccc(F)c(Oc2ccccc2)c1 (centres undefined) [Cyfluthrin]	> 200 µM	6.09	6.69	6.12	6.22	6.18	6.44	5.7
CCCCCCCCO [1-Octanol]	> 200 µM	6.08	5.99	6.03	6.07	5.95	5.95	5.81
CCN(CC)C(=O)c1cccc(C)c1 [Diethyltoluamide]	> 200 µM	5.86	5.86	5.91	6.14	6	5.91	5.85
Cc1ccc([N+](=O)[O-])cc1N [2-Methyl-5-nitroaniline]	50 µM	5.93	5.42	5.81	5.9	5.13	5.58	5.66

Reference: the supplement of paper PMC4858399
